Data set [1] in a line: Apparent volume of distribution in BALB/c mouse at 1 mg/kg, iv measured upto 24 hrs by LC-MS/MS analysis. As to conditions: in vivo.
Another data set addresses T1, CYP2B6 (Homo sapiens, UniProt P20813).
T1 sequence (P20813 whole entry): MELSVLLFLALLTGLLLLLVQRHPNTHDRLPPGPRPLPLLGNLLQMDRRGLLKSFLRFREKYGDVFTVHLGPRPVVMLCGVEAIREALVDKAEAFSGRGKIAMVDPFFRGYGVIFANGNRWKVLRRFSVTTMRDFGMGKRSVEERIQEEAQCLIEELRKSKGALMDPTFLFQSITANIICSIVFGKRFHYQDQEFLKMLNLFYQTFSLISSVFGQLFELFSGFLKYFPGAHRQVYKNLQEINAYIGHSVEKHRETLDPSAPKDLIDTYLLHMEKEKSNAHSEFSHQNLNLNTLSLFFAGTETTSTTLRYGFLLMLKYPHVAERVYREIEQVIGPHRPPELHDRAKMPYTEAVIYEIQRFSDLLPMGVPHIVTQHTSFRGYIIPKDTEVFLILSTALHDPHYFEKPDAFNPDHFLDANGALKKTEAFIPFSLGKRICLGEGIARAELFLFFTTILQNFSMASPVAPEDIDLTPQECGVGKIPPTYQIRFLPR
The data set can be described thus: Inhibition of CYP2B6 in human liver microsomes at 20 uM incubated for 60 mins by HPLC analysis relative to control. The format is ADME.

For another data set, the target named is Cytochrome P450 3A4 (Homo sapiens, UniProt P08684). The data set can be described thus: Inhibition of CYP3A4 in human liver microsomes at 20 uM using testosterone as substrate incubated for 60 mins by HPLC analysis. The format is ADME. As to conditions: 1 h. In general terms: Liver microsomes are a subcellular fraction often used to study metabolism.
Chain of Cytochrome P450 3A4 (P08684 whole entry): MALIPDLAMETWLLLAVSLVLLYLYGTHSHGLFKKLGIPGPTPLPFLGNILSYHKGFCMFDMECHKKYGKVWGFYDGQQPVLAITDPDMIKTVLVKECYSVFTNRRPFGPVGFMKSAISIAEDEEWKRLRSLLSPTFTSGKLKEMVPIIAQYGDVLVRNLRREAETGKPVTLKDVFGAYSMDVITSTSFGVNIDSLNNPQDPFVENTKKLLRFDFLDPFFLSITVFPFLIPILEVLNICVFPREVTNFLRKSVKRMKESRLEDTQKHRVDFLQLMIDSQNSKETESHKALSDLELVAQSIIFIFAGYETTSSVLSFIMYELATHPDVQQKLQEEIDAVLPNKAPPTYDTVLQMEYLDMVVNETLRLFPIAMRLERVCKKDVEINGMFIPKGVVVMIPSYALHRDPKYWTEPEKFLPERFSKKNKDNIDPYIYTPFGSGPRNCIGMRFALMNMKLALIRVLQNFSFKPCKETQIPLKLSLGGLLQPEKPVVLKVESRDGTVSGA
For another data set, the system named is CT26. The data set can be described thus: Antitumor activity against mouse CT26 cells xenografted in BALB/c mouse assessed as tumor growth inhibition at 50 mg/kg, po administerd daily and measured after two weeks. The note with it: 336 h, read-out: TGI.
A short description of data set [2]: in vitro. As to conditions: human, liver microsomes.
The next data set can be described thus: in vivo. As to conditions: BALB/c, mouse, iv, 1 mg/kg.
Data set [3] can be described thus: in vitro. The note with it: CD1, mouse, liver microsomes.
For the next data set, the target named is CYP2D6 (Homo sapiens, UniProt P10635). The data set can be described thus: Inhibition of CYP2D6 in human liver microsomes at 20 uM using dextromethorphan as substrate incubated for 60 mins by HPLC analysis relative to control. As to conditions: probe dextromethorphan. The format is ADME.
Chain of CYP2D6 (P10635 whole entry): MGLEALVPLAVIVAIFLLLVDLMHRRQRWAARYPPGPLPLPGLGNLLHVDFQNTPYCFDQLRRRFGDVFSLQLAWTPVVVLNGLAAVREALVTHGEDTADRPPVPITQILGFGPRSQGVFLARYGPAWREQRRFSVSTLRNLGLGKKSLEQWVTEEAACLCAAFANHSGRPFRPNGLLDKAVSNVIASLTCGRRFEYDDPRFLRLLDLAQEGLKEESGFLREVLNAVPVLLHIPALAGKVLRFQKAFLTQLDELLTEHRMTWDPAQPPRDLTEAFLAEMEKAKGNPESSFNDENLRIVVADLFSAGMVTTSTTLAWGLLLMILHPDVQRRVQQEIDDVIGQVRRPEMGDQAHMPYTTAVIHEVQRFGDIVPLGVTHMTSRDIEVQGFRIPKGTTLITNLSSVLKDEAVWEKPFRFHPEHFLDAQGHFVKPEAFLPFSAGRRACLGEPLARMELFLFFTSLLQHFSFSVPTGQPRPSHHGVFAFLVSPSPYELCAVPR
Data set [4] can be described thus: in vitro. The note with it: CD1, mouse, liver microsomes. This is another data set of the same source.
Data set [5] concerns the target Prostaglandin E2 receptor EP2 subtype (Homo sapiens, UniProt P43116).
Description: Antagonist activity at human EP2 expressed in CHO cells coexpressing G16-alpha assessed as intracellular calcium flux preincubated for 15 mins followed by addition of PGE2 by calcium flux assay

Chain of Prostaglandin E2 receptor EP2 subtype (P43116 whole entry): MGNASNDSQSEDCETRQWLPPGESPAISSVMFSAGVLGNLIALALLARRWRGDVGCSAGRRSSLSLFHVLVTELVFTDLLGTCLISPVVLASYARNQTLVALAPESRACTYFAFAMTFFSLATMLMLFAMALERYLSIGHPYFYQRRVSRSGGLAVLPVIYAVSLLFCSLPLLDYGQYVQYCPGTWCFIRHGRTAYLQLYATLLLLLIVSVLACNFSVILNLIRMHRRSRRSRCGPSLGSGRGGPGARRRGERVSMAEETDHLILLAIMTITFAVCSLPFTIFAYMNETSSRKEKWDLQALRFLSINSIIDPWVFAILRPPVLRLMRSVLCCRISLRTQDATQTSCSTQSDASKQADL

A word on the inhibition: it is how much of the control response was suppressed. The low end stands for a response near the control, the high end for a response far below the control. The half-life is the time needed for the level to fall by half in the phase considered. One may read the Cmax as the highest concentration seen after dosing. As usually defined, the microsomal CLint is the rate of metabolic loss divided by the concentration. High values mean rapid turnover, low ones slow turnover. The term IC50 denotes the midpoint of a concentration-inhibition curve. For `C/C=C/c1nnn(Cc2ccc(C(F)(F)F)cc2)c1C(=O)N[C@@H](C)c1ccc(C(=O)O)cc1`, the Vd at 24 h in data set [1] came out at 10.2 L/kg. For the same compound, the figures for the inhibition at 1 h, 20 µM against CYP2B6 and against CYP2D6 were 26% and 23%, respectively. For the same compound, on Cytochrome P450 3A4, the “inhibition (INH)” value is “Not Active”. Also, the inhibition in vivo at 50 mg/kg with CT26 came out at 54.7%. The half-life at 1 h, 10 µM in the data set “in vitro [2]” and in the data set “in vitro [4]” was above 2.42 h each time. The Cmax at 24 h in the data set “in vivo” was 1200 ng/mL. For the same compound, the intrinsic metabolic clearance (microsomal CLint) at 1 h, 10 µM in the data set “in vitro [3]” was below 9.6 µL/min/mg. Further, the IC50 in [5] is above 10 µM.

(Values after ChEMBL document CHEMBL4376865, “Discovery and Characterization of 1H-1,2,3-Triazole Derivatives as Novel Prostanoid EP4 Receptor Antagonists for Cancer Immunotherapy” (J Med Chem, 2020).)
